The source of these data is BindingDB's records for PubMed 37487305 (Zhengzhou University).

The target in this assay is Histone deacetylase 1 (Homo sapiens, UniProt Q13547). Nature of the assay: Inhibition of HDAC1 (unknown origin) by fluorescence based microplate reader assay.

Broadly, the IC50 is the concentration that inhibits the measured activity by half. Read a low IC50 as greater potency.

Chain of Histone deacetylase 1 (Q13547 whole entry): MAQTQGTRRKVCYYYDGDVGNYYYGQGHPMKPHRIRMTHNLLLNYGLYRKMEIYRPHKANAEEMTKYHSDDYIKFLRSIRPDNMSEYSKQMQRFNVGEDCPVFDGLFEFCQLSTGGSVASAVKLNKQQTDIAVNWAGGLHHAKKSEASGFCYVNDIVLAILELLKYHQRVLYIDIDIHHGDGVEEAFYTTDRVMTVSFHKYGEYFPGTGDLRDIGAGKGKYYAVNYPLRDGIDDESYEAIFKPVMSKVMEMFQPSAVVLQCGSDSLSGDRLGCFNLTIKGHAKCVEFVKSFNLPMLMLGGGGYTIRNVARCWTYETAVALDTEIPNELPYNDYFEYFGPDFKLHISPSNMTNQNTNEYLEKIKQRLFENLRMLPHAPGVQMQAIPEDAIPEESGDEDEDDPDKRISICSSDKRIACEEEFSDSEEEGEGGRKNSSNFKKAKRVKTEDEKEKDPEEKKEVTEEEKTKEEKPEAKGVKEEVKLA

As to `CN1c2ccccc2C(=O)N2[C@H](C(=O)Nc3ccc(C(=O)Nc4ccccc4N)cc3)Cc3c([nH]c4ccccc34)[C@@H]12`, the IC50 was 160 nM. That is a sub-micromolar value.
